Experimental data from US20240101584A1, “TARGETED DELIVERY OF 1,2,4,5 TETRAOXANE COMPOUNDS AND THEIR USES” (Westlake University, priority 2021, published 2024).
Read-outs that look alike come from different tables or passages of the source.

How the values were obtained:
HCT116 cells = test: MTT viability assay, HCT116 cells; assay type: cell-based, human; details: for IC50: Homo sapiens, HCT-116
Protocol: (§1) The anticancer activities of the exemplary compounds listed in Example 1 were tested against human cervix Hela cells, mammary breast cancer MDA-MB-231 cells, human hepatocellular HepG2 cells, human colorectal HCT116 cells, mammary ductal T47D cells, non-cancerous NIH3T3 cells, dog's kidney MDCK cells, and mouse brain bEnd.3 cells, respectively.

T47D cells = test: MTT viability assay, T47D cells; assay type: cell-based; details: for IC50: Homo sapiens, T47D
Protocol: as §1

NIH3T3 cells = test: MTT viability assay, non-cancerous NIH3T3 cells; assay type: cell-based; details: Mus musculus, NIH3T3
Protocol: as §1

MDA-MB-231 cells = test: MTT viability assay, MDA-MB-231 cells; assay type: cell-based; details: for IC50: Homo sapiens
Protocol: as §1

MDCK cells = test: MTT viability assay, MDCK cells; assay type: cell-based, dog; details: Canis lupus familiaris, MDCK, 48 h incubation, mean, n = 3, read-out: IC50 against MDCK cells
Protocol: as §1

Hela cells = test: MTT viability assay, Hela cells; assay type: cell-based, human; details: Homo sapiens, HeLa, 48 h incubation, mean, n = 3, read-out: IC50 against Hela cells
Protocol: as §1

[1] = MTT, 48 h incubation, mean, n = 3, read-out: IC50 against HCT116 cells
[2] = Table 12b, read-out: IC50 HCT116
[3] = MTT, 48 h incubation, mean, n = 3, read-out: IC50 against NIH3T3 cells
[4] = Table 12b, read-out: IC50 NIH3T3
[5] = MDA-MB-231, 48 h, MTT, 48 h incubation, mean, n = 3, read-out: IC50 against MDA-MB-231 cells
[6] = MDA-MB-231, Table 12b, read-out: IC50 MDA-MB-231
[7] = MTT, 48 h incubation, mean, n = 3, read-out: IC50 against T47D cells

IC50 (HCT116 cells; [1]) [µM]	IC50 (MDA-MB-231 cells; [5]) [µM]	Compound	IC50 (NIH3T3 cells; [3]) [µM]	further results
	8.8	C#CCCNC(=O)OCC(C)(C)C1CCC2(CC1)OOC1(CCC(OC(=O)NCCC[N+](C)(Cc3ccccc3)Cc3ccccc3)CC1)OO2 [Compound alk-L-48, N,N-dibenzyl-3-((((12-(1-((but-3-yn-1-ylcarbamoyl)oxy)-2-methylpropan-2-yl)-7,8,15,16-tetraoxadispiro[5.2.59.26]hexadecan-3-yl)oxy)carbonyl)amino)-N-methylpro pan-1-aminium iodide]	18.2	
	2.9	CC(C)(C)C1CCC2(CC1)OOC1(CCC(OC(=O)NCCC[N+](Cc3ccccc3)(Cc3ccccc3)Cc3ccccc3)CC1)OO2 (centres unmarked) [Compound 57, N,N,N-tribenzyl-3-((((12-(tert-butyl)-7,8,15,16-tetraoxadispiro[5.2.59.26]hexadecan-3-yl)oxy)carbonyl)amino)propan-1-aminium iodide]	9.8	
	2.3	C#CCCN(CCC[P+](c1ccccc1)(c1ccccc1)c1ccccc1)C(=O)OC1CCC2(CC1)OOC1(CCC(C(C)(C)C)CC1)OO2 (centres unmarked) [Compound alk-R-37b, (3-(but-3-yn-1-yl(((12-(tert-butyl)-7,8,15,16-tetraoxadispiro[5.2.59.26]hexadecan-3-yl)oxy)carbonyl)amino)propyl)triphenylphosphonium bromide]	9.7	
	1.9	O=C(NCCC[P+](c1ccccc1)(c1ccccc1)c1ccccc1)OC1CCC2(CC1)OOC1(CCCCC1)OO2 [Compound 59b, (3-((((7,8,15,16-tetraoxadispiro[5.2.59.26]hexadecan-3-yl)oxy)carbonyl)amino)propyl)triphenylphosphonium bromide]		
26.2	14.7	CC(C)(C)C1CCC2(CC1)OOC1(CCC(OC(=O)NCCC[N+](C)(C)Cc3ccccc3)CC1)OO2 (centres unmarked) [Compound 54, N-benzyl-3-((((12-(tert-butyl)-7,8,15,16-tetraoxadispiro[5.2.59.26]hexadecan-3-yl)oxy)carbonyl)amino)-N,N-dimethylpropan-1-aminium iodide]	> 50	
	10.4	C[N+](CCCNC(=O)OC1CCC2(CC1)OOC1(CCCCC1)OO2)(Cc1ccccc1)Cc1ccccc1 [Compound 59a, 3-((((7,8,15,16-tetraoxadispiro[5.2.59.26]hexadecan-3-yl)oxy)carbonyl)amino)-N,N-dibenzyl-N-methylpropan-1-aminium iodide]		
	2.1	C#CCCNC(=O)OCC(C)(C)C1CCC2(CC1)OOC1(CCC(OC(=O)NCCC[P+](c3ccccc3)(c3ccccc3)c3ccccc3)CC1)OO2 [Compound alk-L-37b, (3-((((12-(1-((but-3-yn-1-ylcarbamoyl)oxy)-2-methylpropan-2-yl)-7,8,15,16-tetraoxadispiro[5.2.59.26]hexadecan-3-yl)oxy)carbonyl)amino)propyl)triphenylphosphonium bromide]	12.9	

Second part, the molecule before the results:

Compound	IC50 (HCT116 cells; [1]) [µM]	IC50 (MDA-MB-231 cells; [5]) [µM]	IC50 (NIH3T3 cells; [3]) [µM]	further results
CC(=O)OC[C@H]1O[C@@H](OCCCCNC(=O)OC2CCC3(CC2)OOC2(CCC(C(C)(C)C)CC2)OO3)[C@H](OC(C)=O)[C@@H](OC(C)=O)[C@@H]1OC(C)=O (stereo partly drawn) [Compound 37h, (2R,3R,4S,5R,6R)-2-(acetoxymethyl)-6-(4-((((12-(tert-butyl)-7,8,15,16-tetraoxadispiro[5.2.59.26]hexadecan-3-yl)oxy)carbonyl)amino)butoxy)tetrahydro-2H-pyran-3,4,5-triyl triacetate]				IC50 (HCT116 cells; Table 13, experimental data, MTT, 48 hrs, n = 3, read-out: IC50 HCT116): 0.6 ± 0.3 µM; selectivity index (IC50 of NIH3T3 divided by IC50 on HCT116) (HCT116 cells; Table 13, value in bracket): (>7); IC50 (T47D cells; Table 13, experimental data, MTT, 48 hrs, n = 3, read-out: IC50 T47D): 0.6 ± 0.1 µM; selectivity index (IC50 of NIH3T3 divided by IC50 on T47D) (T47D cells; Table 13, value in bracket): (>7); IC50 (NIH3T3 cells; Table 13, experimental data, MTT, 48 hrs, n = 3, read-out: IC50 NIH3T3): 4.6 ± 1.9 µM; IC50 (MDA-MB-231 cells; MDA-MB-231, 48 h, Table 13, experimental data, MTT, 48 hrs, n = 3, read-out: IC50 MDA-MB-231): 0.4 ± 0.05 µM; selectivity index (IC50 of NIH3T3 divided by IC50 on MDA-MB-231) (MDA-MB-231 cells; Table 13, value in bracket): (>11)
CCCC[N+](C)(CCCC)CCCNC(=O)OC1CCC2(CC1)OOC1(CCC(C(C)(C)C)CC1)OO2.[I-] (centres unmarked) [Compound 53, N-butyl-N-(3-((((12-(tert-butyl)-7,8,15,16-tetraoxadispiro[5.2.59.26]hexadecan-3-yl)oxy)carbonyl)amino)propyl)-N-methylbutan-1-aminium iodide]	6.7	< 4	33.7	IC50 (HCT116 cells; [2]): 6.7 ± 1.4 µM; selectivity index (IC50 of NIH3T3 divided by IC50 on HCT116) (HCT116 cells; Table 12b, value in bracket): (>5); IC50 (NIH3T3 cells; [4]): 33.7 ± 3.4 µM; IC50 (MDA-MB-231 cells; [6]): 3.7 ± 0.4 µM; selectivity index (IC50 of NIH3T3 divided by IC50 on MDA-MB-231) (MDA-MB-231 cells; Table 12b, value in bracket): (>9.1)
CC(C)(C)C1CCC2(CC1)OOC1(CCC(OC(=O)NCCOCCOCCNC(=O)OC3CCC4(CC3)OOC3(CCC(C(C)(C)C)CC3)OO4)CC1)OO2 (centres unmarked) [Compound 37j, bis(12-(tert-butyl)-7,8,15,16-tetraoxadispiro[5.2.59.26]hexadecan-3-yl) ((ethane-1,2-diylbis(oxy))bis(ethane-2,1-diyl))dicarbamate]		23.9	> 100	IC50 (MDCK cells): > 100 µM; IC50 (Hela cells): 30.6 µM; IC50 (T47D cells; [7]): 10.6 µM
CCCC[P+](CCCC)(CCCC)CCCNC(=O)OC1CCC2(CC1)OOC1(CCC(C(C)(C)C)CC1)OO2.[Br-] (centres unmarked) [Compound 56, tributyl(3-((((12-(tert-butyl)-7,8,15,16-tetraoxadispiro[5.2.59.26]hexadecan-3-yl)oxy)carbonyl)amino)propyl)phosphonium bromide]	2.7		11.1	IC50 (HCT116 cells; [2]): 2.7 ± 0.3 µM; selectivity index (IC50 of NIH3T3 divided by IC50 on HCT116) (HCT116 cells; Table 12b, value in bracket): (>4.1); IC50 (NIH3T3 cells; [4]): 11.1 ± 0.6 µM; IC50 (MDA-MB-231 cells; [6]): 0.97 ± 0.1 µM; selectivity index (IC50 of NIH3T3 divided by IC50 on MDA-MB-231) (MDA-MB-231 cells; Table 12b, value in bracket): (>11.4)
CC(C)(C)C1CCC2(CC1)OOC1(CCC(OC(=O)N3CCNCC3)CC1)OO2 (centres unmarked) [Compound 37f, 12-(tert-butyl)-7,8,15,16-tetraoxadispiro[5.2.59.26]hexadecan-3-yl piperazine-1-carboxylate]		< 4	11.6	IC50 (MDCK cells): 12.4 µM; IC50 (Hela cells): 3.1 µM; IC50 (T47D cells; [7]): 1.3 µM; IC50 (T47D cells; Table 12b, read-out: IC50 T47D): 1.3 ± 0.6 µM; selectivity index (IC50 of NIH3T3 divided by IC50 on T47D) (T47D cells; Table 12b, value in bracket): (>8.9); IC50 (NIH3T3 cells; [4]): 11.6 ± 2.4 µM; IC50 (MDA-MB-231 cells; [6]): 2.9 ± 0.8 µM; selectivity index (IC50 of NIH3T3 divided by IC50 on MDA-MB-231) (MDA-MB-231 cells; Table 12b, value in bracket): (>4)
CC(C)(C)C1CCC2(CC1)OOC1(CCC(OC(=O)NCCC[N+](C)(C)C)CC1)OO2 (centres unmarked) [Compound 49, 3-((((12-(tert-butyl)-7,8,15,16-tetraoxadispiro[5.2.59.26]hexadecan-3-yl)oxy)carbonyl)amino)-N,N,N-trimethylpropan-1-aminium iodide]	> 50	31.5	> 50	
C[n+]1ccc(CNC(=O)OC2CCC3(CC2)OOC2(CCC(C(C)(C)C)CC2)OO3)cc1 (centres unmarked) [Compound 50, 4-(((((12-(tert-butyl)-7,8,15,16-tetraoxadispiro[5.2.59.26]hexadecan-3-yl)oxy)carbonyl)amino)methyl)-1-methylpyridin-1-ium iodide]	> 25	19.2	44.9	
OC1CCC2(CC1)OOC1(CCCCC1)OO2 [Compound 59, 7,8,15,16-tetraoxadispiro[5.2.59.26]hexadecan-3-ol]		> 50		
CC(C)(C)C1CCC2(CC1)OOC1(CCC(OC(=O)N3CC[N+](C)(C)CC3)CC1)OO2 (centres unmarked) [Compound 51, 4-(((12-(tert-butyl)-7,8,15,16-tetraoxadispiro[5.2.59.26]hexadecan-3-yl)oxy)carbonyl)-1,1-dimethylpiperazin-1-ium iodide]	> 50	26.1	> 25	
C#CCCNC(=O)OCC(C)(C)C1CCC2(CC1)OOC1(CCC(O)CC1)OO2 [Compound alk-L-37, 2-(12-hydroxy-7,8,15,16-tetraoxadispiro[5.2.59.26]hexadecan-3-yl)-2-methylpropyl but-3-yn-1-ylcarbamate]		24.5		
C#CCCN(CCC[N+](C)(Cc1ccccc1)Cc1ccccc1)C(=O)OC1CCC2(CC1)OOC1(CCC(C(C)(C)C)CC1)OO2.[I-] (centres unmarked) [Compound alk-R-48, N,N-dibenzyl-3-(but-3-yn-1-yl(((12-(tert-butyl)-7,8,15,16-tetraoxadispiro[5.2.59.26]hexadecan-3-yl)oxy)carbonyl)amino)-N-methylpropan-1-aminium iodide]			10.8	IC50 (NIH3T3 cells; [4]): 10.8 ± 3.7 µM; IC50 (MDA-MB-231 cells; [6]): 0.8 ± 0.2 µM; selectivity index (IC50 of NIH3T3 divided by IC50 on MDA-MB-231) (MDA-MB-231 cells; Table 12b, value in bracket): (>13)
